Assay results taken from patent publication US9975860B2, “Anti-angiogenic compounds” (UNIVERSITY COLLEGE DUBLIN—NATIONAL UNIVERSITY OF IRELAND, …, priority 2014, dated 2018).
“Also recorded” adds a separate entry of the source.

Legend:
[1] = tested on: primary hyaloid vessels in zebrafish; assay: Quantification of primary hyaloid vasculature branch number in Tg(fli1:EGFP) zebrafish; format: in vivo
Description: All experiments were carried out under ethical approval granted by the UCD animal research ethics committee. Tg(fli1:EGFP) zebrafish were maintained according to standard procedures on a 14 hr light/10 hr dark cycle at 28° C. Embryos were obtained by natural spawning and developmental stages established by time and morphological criteria. At 48 hours post fertilisation (hpf), 5 embryos per well were placed in 400 μl of Embryo Medium/0.1% DMSO and incubated with compound (typically, 10 μM) at 28° C. on a 14 h light/10 h dark cycle. At 5 days post fertilisation (dpf), larvae were euthanised, and fixed in 4% PFA at 4° C. overnight before analysis.
Prior to analysis of the intraocular vasculature, the control and treated larvae were observed under an Olympus SZX16 stereo zoom microscope and screened for general malformations. Overall patterning of the vasculature (fin, gut and intersegmental vessels) was examined for abnormalities. Right lenses were dissected from the larvae and transferred to depression slides for observation under epi-fluorescence in the Olympus SZX16. Patterning of the hyaloid vessels on the treated larval lenses was compared to 0.1% DMSO controls and the archetypal pattern previously described (Alvarez et al., 2007; Alvarez et al., 2009). The number of primary vessels radiating from the back of the lens (3-4 main branches at 5 dpf in controls and previously described), was counted and the average number was graphed for each drug.
(§1) All experimental protocols were carried out as per example 1 and 2. Briefly, zebrafish larvae were treated with 10 μM of AT-051/41206012 (chemical name 2-[2-(2-methoxyphenyl)ethenyl]pyrazine) purchased from Specs (The Netherlands). At 6 or 48 hours post fertilisation (hpf), 5 embryos per well were placed in 400 μl of Embryo Medium/0.1% DMSO and incubated with 10 μM AT-051/41206012 at 28° C. on a 14 h light/10 h dark cycle. Larvae were treated from 6-48 hpf (intersegmental vessel study) or from 48 to 120 hpf (primary hyaloid vessel study). At the end of the study, larvae were euthanized and fixed in 4% PFA at 4° C. overnight before analysis.
(§2) The number of intersegmental vessels was counted and the average number was graphed for each drug. Right lenses were dissected from the larvae and transferred to depression slides for observation and the number of primary hyaloid vessels radiating from the back of the lens (3-4 main branches at 5 dpf in controls and previously described), was counted and the average number was graphed for each drug.

[2] = tested on: intersegmental vasculature in zebrafish; assay: Quantification of intersegmental vessel number in zebrafish; format: in vivo; conditions: 10 μM; zebrafish embryos treated 6 hpf to 48 hpf
Description: At 6 hours post fertilisation, 5 embryos per well were placed in 400 μL of embryo medium/0.1% DMSO and incubated with 10 μM compound at 28° C. on a 14 h light/10 h dark cycle. At 48 hpf larvae were manually dechorionated, euthanised, and fixed in 4% PFA at 4° C. overnight before analysis. The larvae were then washed with PBS and transferred to depression slides for observation under epi-fluorescence in an Olympus SZX16 fluorescent microscope. The number of intersegmental vessels was counted and the average number was graphed for each drug.
as §1, §2

[3] = tested on: human retinal (ARPE-19) cells; assay: MTT cell viability assay in ARPE-19; format: cell-based; conditions: 5, 10, 25, 50, 75 or 90 μM, 96 hours
Description: A 3-(4,5-dimethylthiozol-2-yl)-2,5-diphenyltetrazolium bromide (MTT) dye reduction assay was carried out to determine the cytotoxicity of each compound on either human microvascular endothelial cells (HMECs) or human retinal pigmented epithelium cells (ARPE-19). Cells were maintained in a 95% air and 5% CO2 atmosphere at 37° C. in Dulbecco modified Eagle medium (DMEM, Sigma Aldrich) with 10% fetal bovine serum, 2 mM Gibco® L-glutamine and 100 units/ml penicillin, 1 mg/ml streptomycin (Invitrogen) supplementation. On day 1, cells were trypsinized (Trypsin-EDTA 1×) and seeded 1.4×10^4 cells per well of a 96 well plate and incubated overnight. On day 2, cells were serum staved in DMEM with L-glutamine and penicillin-streptomycin supplementation for 24 h. On day 3, cells were drug treated for 24 h (HMECs) or 96 h (ARPE-19 cells) with 0.1% DMSO or 10 μM to 90 μM of each compound 4, 8, 15, 18 or 20, with 4 replicate wells of each compound. After 24-96 h, cells were incubated with […] 5 mg/ml MTT labelling Reagent (Roche) for 2 h. Subsequently, when purple formazan crystals formed cells were incubated with 1× solubilisation solution (Roche) for 4 h and absorbance read at 570 nm using a microplate reader.

[4] = tested on: mouse aortic ring; assay: Ex vivo mouse aortic ring assay (sprout formation); conditions: 10 μM; C57/BL6 mouse aortic rings in matrigel; vs 0.1% DMSO; hydrochloride
Description: Aortae from sex matched C57/BL6 littermates were cleansed of adipose tissue, cut into 2 mm rings and immersed in matrigel. Aortic rings (6 per experiment) were treated with 0.1% DMSO (vehicle control/VC) or with 10 μM of Compound 4, Compound 12, Compound 15 or Compound 20. Sprouts from the perimeter of the aortic ring were counted and quantified as percentage of vehicle control (VC).

[5] = 10 μM, zebrafish larvae treated 48 hpf to 5 dpf, vs 0.1% DMSO control
[6] = concentrations below 10 μM (range 1, 2.5, 5, 7.5 and 10 μM tested), zebrafish larvae 48 hpf to 5 dpf

Row | Structure (SMILES) | inhibition of developmental angiogenesis of the hyaloid vasculature (number of primary hyaloid vessels) [1, 5] | inhibition of developmental angiogenesis of intersegmental vessels (number of intersegmental vessels) [2] | inhibition of developmental angiogenesis of the hyaloid vasculature (number of primary hyaloid vessels) [1, 6] | cell viability (MTT assay) [3] | angiogenesis (sprout formation) in aortic rings [4]
1 | COc1ccccc1/C=C/c1cnccn1 [AT-051/41206012, 2-[2-(2-methoxyphenyl)ethenyl]pyrazine] | significantly inhibits developmental angiogenesis of zebrafish hyaloid vessels; also recorded: does inhibit developmental angiogenesis of the zebrafish hyaloid vasculature in a statistically significant manner | does not inhibit developmental angiogenesis of the intersegmental vessels; also recorded: does not affect the development of intersegmental vessels |  |  | 
2 | Oc1ccccc1/C=C/c1ccccn1 [Compound 1, (E)-2-[2-(Pyridin-2-yl)vinyl]phenol] | inhibit developmental angiogenesis of the zebrafish hyaloid vasculature in a statistically significant manner |  |  |  | 
3 | Cl.Oc1ccccc1/C=C/c1ccccn1 [Compound 2, (E)-2-[2-(Pyridin-2-yl)vinyl]phenol hydrochloride] | inhibit developmental angiogenesis of the zebrafish hyaloid vasculature in a statistically significant manner | inhibit developmental angiogenesis of zebrafish intersegmental vessels in a statistically significant manner | inhibit developmental angiogenesis of the zebrafish hyaloid vasculature in a statistically significant manner |  | 
4 | Oc1ccccc1/C=C/c1cnccn1 [Compound 3, (E)-2-[2-(Pyrazin-2-yl)vinyl]phenol] | inhibit developmental angiogenesis of the zebrafish hyaloid vasculature in a statistically significant manner | inhibit developmental angiogenesis of zebrafish intersegmental vessels in a statistically significant manner | inhibit developmental angiogenesis of the zebrafish hyaloid vasculature in a statistically significant manner |  | 
5 | Cc1cccc(/C=C/c2ccccc2O)n1.Cl [Compound 8, (E)-2-[2-(6-Methylpyridin-2-yl)vinyl]phenol hydrochloride] | inhibit developmental angiogenesis of the zebrafish hyaloid vasculature in a statistically significant manner |  | inhibit developmental angiogenesis of the zebrafish hyaloid vasculature in a statistically significant manner | does not affect cell viability | 
6 | C/C(=C\c1ccccc1O)c1cnccn1 [Compound 11, (E)-2-[2-(Pyrazin-2-yl)prop-1-enyl]phenol] | inhibit developmental angiogenesis of the zebrafish hyaloid vasculature in a statistically significant manner |  |  |  | 
7 | Cc1ccc(O)c(/C=C/c2cnccn2)c1 [Compound 13, (E)-4-Methyl-[2-(2-(pyrazin-2-yl)vinyl)]phenol] | inhibit developmental angiogenesis of the zebrafish hyaloid vasculature in a statistically significant manner |  |  |  | 
8 | Cc1ccc(O)c(/C=C/c2cnccn2)c1.Cl [Compound 14, (E)-4-Methyl-[2-(2-(Pyrazin-2-yl)vinyl)]phenol hydrochloride] | inhibit developmental angiogenesis of the zebrafish hyaloid vasculature in a statistically significant manner |  |  |  | 
9 | Cl.Oc1ccccc1/C=C/c1ncccn1 [Compound 15, (E)-2-[2-(Pyrimidin-2-yl)vinyl]phenol hydrochloride] | inhibit developmental angiogenesis of the zebrafish hyaloid vasculature in a statistically significant manner |  |  | does not affect cell viability | block angiogenesis (sprout formation); also recorded: inhibit the formation of sprouts in a statistically significant manner
10 | COc1ccccc1C#Cc1cnccn1 [Compound 19, 2-[2-(2-Methoxyphenyl)ethynyl]pyrazine] |  | inhibit developmental angiogenesis of zebrafish intersegmental vessels in a statistically significant manner | inhibit developmental angiogenesis of the zebrafish hyaloid vasculature in a statistically significant manner |  | 
11 | Cl.Oc1ccccc1C#Cc1cnccn1 [Compound 20, 2-[2-(pyrazin-2-yl)ethynyl]phenol hydrochloride] | inhibit developmental angiogenesis of the zebrafish hyaloid vasculature in a statistically significant manner | inhibit developmental angiogenesis of zebrafish intersegmental vessels in a statistically significant manner | inhibit developmental angiogenesis of the zebrafish hyaloid vasculature in a statistically significant manner | does not affect cell viability | block angiogenesis (sprout formation); also recorded: inhibit the formation of sprouts in a statistically significant manner
12 | Cl.Oc1ccccc1/C=C/c1ncc[nH]1 [Compound 23, (E)-2-(2-(IH-Imidazol-2-yl)vinyl)phenol hydrochloride] | inhibit developmental angiogenesis of the zebrafish hyaloid vasculature in a statistically significant manner |  |  |  | 
